Source: ChEMBL document CHEMBL1201862, “PubChem BioAssay data set” (2004)
Calls of active or inactive are those of the source.

Experiments:
[1] = biological target: T1, Carboxy-terminal domain RNA polymerase II polypeptide A small phosphatase 1 (Homo sapiens, UniProt Q9GZU7); experiment: CTDSP1 inhibitors, concentration-response, biochemical, absorbance readout, ultra-high-throughput screen actives (AID 540297); format: functional
T1 sequence (Q9GZU7 whole entry): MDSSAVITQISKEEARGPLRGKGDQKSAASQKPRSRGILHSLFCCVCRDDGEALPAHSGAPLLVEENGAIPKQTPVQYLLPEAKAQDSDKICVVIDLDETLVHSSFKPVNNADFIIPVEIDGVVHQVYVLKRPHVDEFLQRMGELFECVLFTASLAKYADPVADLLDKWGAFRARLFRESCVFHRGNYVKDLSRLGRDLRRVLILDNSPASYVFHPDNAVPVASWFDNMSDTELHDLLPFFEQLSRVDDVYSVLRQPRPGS

[2] = A cytotoxicity screen of small molecule inhibitors of the PhoP region in Salmonella typhi identified in the primary screen. [Related pubchem assays: 1850, 1864, 1985 ]; format: functional
[3] = biological target: T2, Endoribonuclease toxin MazF (Escherichia coli K-12, UniProt P0AE70); experiment: activation of MazEF endoribonuclease cleavage – biochemical, fluorescence, single-stranded RNA substrate, uHTS hits, dose response (AID 588481); format: functional
T2 sequence (P0AE70 whole entry): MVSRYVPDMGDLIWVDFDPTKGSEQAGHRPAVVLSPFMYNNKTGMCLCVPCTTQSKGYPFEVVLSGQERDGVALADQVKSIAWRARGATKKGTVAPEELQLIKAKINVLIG

[4] = biological target: T2, Endoribonuclease toxin MazF; experiment: substrate-only fluorescence increase artefacts – biochemical, single-stranded RNase substrate, counter-screen for MazEF activator project, dose response (AID 588502); format: functional
[5] = HIV-1 AD8 envelope cell-cell fusion blockers – cherry-pick, dose response (AID 652062); format: functional, cell-based;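 note: luciferase signal from cell-cell fusion driven by HIV-1 clade B AD8 Env; potency is for inhibitors of fusion seen as a drop in luminescence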
[6] = blockers of HIV-1 envelope-mediated cell-cell fusion – cherry-pick, dose response (AID 652057); format: functional, cell-based
[7] = blockers of HIV-1 ZM109 envelope-driven cell-cell fusion – HeLa effector, CEM target cells, luciferase, cherry-pick, dose response (AID 652058); format: functional, cell-based;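 note: luciferase signal from HIV-1 Env mediated cell-cell fusion of effector and target cells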
[8] = off-target signal loss in HeLa-CEM21 co-culture – HeLa F-luc CTL cells, cherry-picked, counter-screen for HIV-1 Env fusion inhibitor project, dose response (AID 652040); format: functional, cell-based;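 note: potency for signal decrease marking cytotoxic or nonspecific inhibition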
[9] = viability of uninfected HEp-2 cells – cell-based, HTS, cytotoxicity control for RSV inhibitor project, dose response (AID 2410); format: functional; conditions: human respiratory syncytial virus
Cytochrome P450 1A2 = biological target: T3, Cytochrome P450 1A2 (Homo sapiens, UniProt P05177);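 note: PubChem cytochrome P450 panel assay, CYP1A2 panel member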
T3 sequence (P05177 whole entry): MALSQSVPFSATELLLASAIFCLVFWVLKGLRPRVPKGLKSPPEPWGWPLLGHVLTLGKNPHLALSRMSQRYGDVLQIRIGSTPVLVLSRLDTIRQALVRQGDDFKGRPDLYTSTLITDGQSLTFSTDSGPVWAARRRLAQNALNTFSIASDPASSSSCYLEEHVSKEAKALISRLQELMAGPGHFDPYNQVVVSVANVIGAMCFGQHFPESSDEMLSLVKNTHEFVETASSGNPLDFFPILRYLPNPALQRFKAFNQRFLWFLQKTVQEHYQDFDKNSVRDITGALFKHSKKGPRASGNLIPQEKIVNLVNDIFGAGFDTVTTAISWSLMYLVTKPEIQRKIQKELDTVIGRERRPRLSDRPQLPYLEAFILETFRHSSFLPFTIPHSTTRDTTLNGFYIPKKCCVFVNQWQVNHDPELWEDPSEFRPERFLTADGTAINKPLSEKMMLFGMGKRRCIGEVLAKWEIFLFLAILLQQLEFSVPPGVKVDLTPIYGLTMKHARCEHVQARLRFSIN

[10] = biological target: Voltage-dependent T-type calcium channel subunit alpha-1H (Homo sapiens, UniProt O95180); format: functional;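 note: channel activity triggered by adding a high calcium stimulation buffer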
Cytochrome P450 2C19 = Cytochrome P450 2C19 (Homo sapiens, UniProt P33261); experiment: Cytochrome panel assay with activity outcomes. Panel member name: p450-cyp2c19 Compounds with AC50 equal or less than 10 uM are considered active; format: functional; conditions: read-out: AC50
Cytochrome P450 2D6 = Cytochrome P450 2D6 (Homo sapiens, UniProt P10635);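 note: CYP2D6 member of a cytochrome P450 panel assay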
Cytochrome P450 2C9 [11] = biological target: T4, Cytochrome P450 2C9 (Homo sapiens, UniProt P11712)
cells = format: functional
[12] = biological target: T5, Corticotropin-releasing factor receptor 2/Corticotropin-releasing factor-binding protein (Homo sapiens, UniProt P24387+Q13324); experiment: activators of CRF receptor 2 with binding protein – uHTS hits, confirmation (AID 602473); format: functional; conditions: read-out: EC50_Mean
T5 sequence (Q13324 whole entry): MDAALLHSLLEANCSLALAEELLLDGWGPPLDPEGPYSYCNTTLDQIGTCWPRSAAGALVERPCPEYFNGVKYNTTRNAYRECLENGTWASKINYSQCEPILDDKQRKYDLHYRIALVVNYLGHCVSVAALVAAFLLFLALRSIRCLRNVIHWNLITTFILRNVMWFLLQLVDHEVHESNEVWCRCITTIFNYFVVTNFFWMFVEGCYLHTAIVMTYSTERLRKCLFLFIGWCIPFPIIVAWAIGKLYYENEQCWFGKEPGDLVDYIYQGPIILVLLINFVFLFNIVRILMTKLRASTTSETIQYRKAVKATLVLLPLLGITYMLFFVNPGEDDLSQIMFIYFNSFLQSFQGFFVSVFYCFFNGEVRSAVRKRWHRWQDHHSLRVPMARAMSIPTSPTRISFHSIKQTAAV
T5 sequence (P24387 whole entry): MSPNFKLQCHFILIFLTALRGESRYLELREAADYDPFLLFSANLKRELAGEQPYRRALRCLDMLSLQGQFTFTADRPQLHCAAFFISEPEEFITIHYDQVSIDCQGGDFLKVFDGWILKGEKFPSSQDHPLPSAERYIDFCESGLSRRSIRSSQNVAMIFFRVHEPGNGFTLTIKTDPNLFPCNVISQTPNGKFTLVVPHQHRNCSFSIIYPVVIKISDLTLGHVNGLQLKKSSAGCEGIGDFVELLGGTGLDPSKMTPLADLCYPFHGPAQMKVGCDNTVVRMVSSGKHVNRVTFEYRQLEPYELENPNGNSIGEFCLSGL

[13] = Trypanosoma cruzi growth suppression in host cells – NIH3T3 host cells, beta-gal luminescence, confirmation (AID 2044); format: functional, cell-based;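 note: intracellular parasites grown in NIH/3T3 mouse fibroblasts as host cells; luminescent beta-galactosidase reporter signal from transgenic T. cruzi replicating inside host cells; inhibitors lower the luminescence signal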
[14] = NIH3T3 cell viability loss – ATP luminescence, mouse fibroblasts, counter-screen, dose response (AID 2010); format: functional, cell-based;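 note: cells exposed to compound for about 90 hours before reading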
[15] = viability loss in THP-1 monocytes – THP-1 cells, cytotoxicity control for Vif-APOBEC3G degradation inhibitor project, dose response (AID 1117359); format: functional; conditions: THP-1
Cytochrome P450 2C9 [16] = biological target: T4, Cytochrome P450 2C9; remark: listed apart in the source
[17] = biological target: T6, E3 ubiquitin-protein ligase XIAP (Homo sapiens, UniProt P98170); experiment: Counter Screen using XIAP-Bir3 for Chemical Antagonists of Bir1/2 domains of IAP-family anti-apoptotic proteins. [Related pubchem assays (depositor defined):AID1018, AID1449, AID1514, AID1638, AID1749, AID1750, AID488957, AID488963]
[18] = biological target: T6, E3 ubiquitin-protein ligase XIAP; experiment: small molecules displacing peptide from XIAP – biochemical, IAP family, fluorescence polarization (AID 1018); format: functional
Cytochrome P450 3A4 [19] = biological target: T7, Cytochrome P450 3A4 (Homo sapiens, UniProt P08684)
Cytochrome P450 3A4 [20] = biological target: T7, Cytochrome P450 3A4; conditions: Potency
[21] = biological target: Glyceraldehyde-3-phosphate dehydrogenase (Homo sapiens, UniProt P04406)

T7 sequence (P08684 whole entry): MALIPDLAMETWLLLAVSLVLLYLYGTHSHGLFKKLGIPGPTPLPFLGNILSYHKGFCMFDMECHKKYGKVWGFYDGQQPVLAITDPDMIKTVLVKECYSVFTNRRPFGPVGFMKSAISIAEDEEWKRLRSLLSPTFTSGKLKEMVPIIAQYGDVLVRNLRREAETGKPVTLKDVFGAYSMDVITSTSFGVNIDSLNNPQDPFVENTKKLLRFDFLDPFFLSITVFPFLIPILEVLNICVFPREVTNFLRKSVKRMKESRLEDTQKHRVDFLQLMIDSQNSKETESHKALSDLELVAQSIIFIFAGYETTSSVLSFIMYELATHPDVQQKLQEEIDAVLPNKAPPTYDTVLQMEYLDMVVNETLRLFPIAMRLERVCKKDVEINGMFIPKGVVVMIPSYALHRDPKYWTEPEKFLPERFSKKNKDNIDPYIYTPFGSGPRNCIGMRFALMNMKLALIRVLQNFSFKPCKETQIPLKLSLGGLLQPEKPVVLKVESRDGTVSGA
Chain of Cytochrome P450 2C19 (P33261 whole entry): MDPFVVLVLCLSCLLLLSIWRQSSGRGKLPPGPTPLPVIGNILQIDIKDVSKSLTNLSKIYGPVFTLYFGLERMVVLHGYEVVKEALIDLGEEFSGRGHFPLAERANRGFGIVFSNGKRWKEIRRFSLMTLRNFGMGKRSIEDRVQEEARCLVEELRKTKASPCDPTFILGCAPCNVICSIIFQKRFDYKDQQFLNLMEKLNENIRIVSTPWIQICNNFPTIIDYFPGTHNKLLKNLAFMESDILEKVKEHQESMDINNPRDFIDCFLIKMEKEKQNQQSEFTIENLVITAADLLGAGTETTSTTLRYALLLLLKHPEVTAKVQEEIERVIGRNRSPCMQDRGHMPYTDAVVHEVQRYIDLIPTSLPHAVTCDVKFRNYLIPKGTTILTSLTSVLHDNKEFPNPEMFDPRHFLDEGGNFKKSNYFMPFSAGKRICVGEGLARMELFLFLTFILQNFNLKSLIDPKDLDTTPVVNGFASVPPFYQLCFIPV
Chain of Voltage-dependent T-type calcium channel subunit alpha-1H (O95180 whole entry): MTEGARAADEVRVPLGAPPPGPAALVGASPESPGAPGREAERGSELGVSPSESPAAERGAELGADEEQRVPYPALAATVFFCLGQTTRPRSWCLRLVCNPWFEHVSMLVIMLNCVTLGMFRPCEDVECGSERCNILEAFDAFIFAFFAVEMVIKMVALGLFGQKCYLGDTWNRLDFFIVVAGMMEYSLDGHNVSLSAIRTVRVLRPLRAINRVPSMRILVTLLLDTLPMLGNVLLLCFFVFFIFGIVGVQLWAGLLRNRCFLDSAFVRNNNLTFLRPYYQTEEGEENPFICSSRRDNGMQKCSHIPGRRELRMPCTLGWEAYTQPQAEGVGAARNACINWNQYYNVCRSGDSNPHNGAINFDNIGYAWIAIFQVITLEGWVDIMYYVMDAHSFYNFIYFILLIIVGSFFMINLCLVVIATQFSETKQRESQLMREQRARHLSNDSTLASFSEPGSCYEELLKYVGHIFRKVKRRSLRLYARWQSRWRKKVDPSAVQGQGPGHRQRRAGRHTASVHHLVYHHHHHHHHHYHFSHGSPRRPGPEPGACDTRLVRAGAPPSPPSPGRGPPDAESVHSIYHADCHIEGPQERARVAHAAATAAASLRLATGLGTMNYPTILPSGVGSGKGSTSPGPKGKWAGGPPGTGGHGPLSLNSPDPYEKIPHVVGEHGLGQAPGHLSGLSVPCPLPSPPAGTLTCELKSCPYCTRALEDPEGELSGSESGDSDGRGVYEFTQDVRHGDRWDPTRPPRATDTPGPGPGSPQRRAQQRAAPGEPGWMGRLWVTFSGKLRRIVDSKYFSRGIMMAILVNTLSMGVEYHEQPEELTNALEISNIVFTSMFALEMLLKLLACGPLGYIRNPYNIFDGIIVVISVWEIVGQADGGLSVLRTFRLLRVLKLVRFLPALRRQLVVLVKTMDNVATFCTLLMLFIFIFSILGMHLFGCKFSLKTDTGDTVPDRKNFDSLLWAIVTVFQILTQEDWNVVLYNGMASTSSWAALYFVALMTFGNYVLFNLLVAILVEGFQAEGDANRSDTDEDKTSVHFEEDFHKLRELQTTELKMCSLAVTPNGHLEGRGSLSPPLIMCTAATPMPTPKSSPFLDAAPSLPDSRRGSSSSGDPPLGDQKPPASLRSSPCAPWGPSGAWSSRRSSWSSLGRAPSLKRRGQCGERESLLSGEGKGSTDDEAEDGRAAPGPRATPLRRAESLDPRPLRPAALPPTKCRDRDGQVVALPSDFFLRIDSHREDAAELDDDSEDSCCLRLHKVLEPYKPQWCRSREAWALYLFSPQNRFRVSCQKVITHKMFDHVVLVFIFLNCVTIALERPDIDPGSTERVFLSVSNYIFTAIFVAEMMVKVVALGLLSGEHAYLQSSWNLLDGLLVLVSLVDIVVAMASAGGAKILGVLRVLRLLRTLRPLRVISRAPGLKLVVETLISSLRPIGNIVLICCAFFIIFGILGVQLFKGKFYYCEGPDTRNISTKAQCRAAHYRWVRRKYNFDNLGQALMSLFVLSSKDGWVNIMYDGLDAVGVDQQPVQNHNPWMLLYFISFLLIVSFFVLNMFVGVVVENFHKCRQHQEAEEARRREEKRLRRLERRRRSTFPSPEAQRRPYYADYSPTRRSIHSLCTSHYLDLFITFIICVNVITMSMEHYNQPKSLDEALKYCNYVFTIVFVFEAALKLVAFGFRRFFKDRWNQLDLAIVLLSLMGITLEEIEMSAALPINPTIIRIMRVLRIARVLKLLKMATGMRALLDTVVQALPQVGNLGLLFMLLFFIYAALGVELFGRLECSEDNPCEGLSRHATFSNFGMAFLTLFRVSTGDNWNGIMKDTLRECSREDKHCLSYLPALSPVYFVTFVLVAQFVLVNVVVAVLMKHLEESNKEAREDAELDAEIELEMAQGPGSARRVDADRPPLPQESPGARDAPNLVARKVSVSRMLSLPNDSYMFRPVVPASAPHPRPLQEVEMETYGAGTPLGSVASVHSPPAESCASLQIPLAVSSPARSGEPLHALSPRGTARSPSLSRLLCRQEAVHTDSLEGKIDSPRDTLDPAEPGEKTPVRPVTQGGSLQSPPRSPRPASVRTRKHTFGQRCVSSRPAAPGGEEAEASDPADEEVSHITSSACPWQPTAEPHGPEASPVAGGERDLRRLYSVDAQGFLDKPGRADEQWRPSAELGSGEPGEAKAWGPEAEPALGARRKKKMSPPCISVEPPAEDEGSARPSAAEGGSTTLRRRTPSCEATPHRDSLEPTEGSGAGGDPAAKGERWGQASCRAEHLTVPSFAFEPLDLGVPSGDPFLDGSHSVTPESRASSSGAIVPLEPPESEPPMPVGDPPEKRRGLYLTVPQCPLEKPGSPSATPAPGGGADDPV
T4 sequence (P11712 whole entry): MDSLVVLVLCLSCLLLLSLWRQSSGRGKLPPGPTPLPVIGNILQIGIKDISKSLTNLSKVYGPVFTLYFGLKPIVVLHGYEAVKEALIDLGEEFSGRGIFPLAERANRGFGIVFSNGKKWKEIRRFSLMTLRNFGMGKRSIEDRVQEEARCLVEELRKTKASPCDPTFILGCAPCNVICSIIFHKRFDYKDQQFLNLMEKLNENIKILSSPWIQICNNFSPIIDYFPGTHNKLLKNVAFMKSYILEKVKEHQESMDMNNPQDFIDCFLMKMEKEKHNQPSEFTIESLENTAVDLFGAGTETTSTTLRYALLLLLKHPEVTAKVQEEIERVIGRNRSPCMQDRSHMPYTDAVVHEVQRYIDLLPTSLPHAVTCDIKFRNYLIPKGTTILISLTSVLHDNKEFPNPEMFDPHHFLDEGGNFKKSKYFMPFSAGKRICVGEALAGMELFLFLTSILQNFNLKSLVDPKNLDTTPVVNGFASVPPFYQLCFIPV
Chain of Cytochrome P450 2D6 (P10635 whole entry): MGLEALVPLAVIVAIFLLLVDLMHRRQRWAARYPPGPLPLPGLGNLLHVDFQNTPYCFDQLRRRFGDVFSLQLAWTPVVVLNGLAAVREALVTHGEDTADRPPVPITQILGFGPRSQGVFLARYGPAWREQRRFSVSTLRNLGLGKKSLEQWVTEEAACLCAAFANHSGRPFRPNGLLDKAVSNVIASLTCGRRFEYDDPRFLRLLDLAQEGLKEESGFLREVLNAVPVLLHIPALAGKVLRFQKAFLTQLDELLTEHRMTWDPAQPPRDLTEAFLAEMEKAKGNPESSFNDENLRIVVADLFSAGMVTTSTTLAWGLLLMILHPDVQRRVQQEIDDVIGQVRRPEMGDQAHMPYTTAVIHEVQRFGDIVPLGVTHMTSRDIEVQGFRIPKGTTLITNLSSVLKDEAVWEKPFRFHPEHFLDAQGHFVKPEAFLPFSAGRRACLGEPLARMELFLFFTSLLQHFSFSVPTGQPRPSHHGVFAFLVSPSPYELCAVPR
T6 sequence (P98170 whole entry): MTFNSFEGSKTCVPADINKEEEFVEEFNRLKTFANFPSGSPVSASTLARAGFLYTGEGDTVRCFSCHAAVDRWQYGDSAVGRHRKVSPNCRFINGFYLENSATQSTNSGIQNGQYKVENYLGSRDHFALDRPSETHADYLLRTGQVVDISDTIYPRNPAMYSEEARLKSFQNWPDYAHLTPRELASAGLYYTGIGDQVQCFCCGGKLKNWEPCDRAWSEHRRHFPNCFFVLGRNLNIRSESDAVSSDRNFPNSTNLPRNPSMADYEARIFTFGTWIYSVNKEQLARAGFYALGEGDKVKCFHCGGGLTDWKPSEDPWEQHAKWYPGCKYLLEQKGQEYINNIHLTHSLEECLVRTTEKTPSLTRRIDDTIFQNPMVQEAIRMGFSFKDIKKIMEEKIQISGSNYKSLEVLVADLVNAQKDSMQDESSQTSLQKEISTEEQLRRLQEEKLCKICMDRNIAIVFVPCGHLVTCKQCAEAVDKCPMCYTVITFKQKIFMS

O=C(CCCCCCCC(=O)NNC(=O)Nc1ccccc1)NNC(=O)Nc1ccccc1
IC50 [1]: 11.9 µM (active)

CCCCCc1nc2c(c3c1CCCC3)CCCC2
EC50 [2]: > 50 µM (active)

CCSc1nc(C)cc(C)c1S(=O)(=O)c1ccccc1C
EC50 [2]: > 50 µM (active)

Clc1cccc(/C(Cc2nc3ccccc3[nH]2)=N\Nc2ccccc2)c1
EC50 [3]: > 99 µM (inactive)
EC50 [4]: > 99 µM (inactive)

OC1=C2C(=Nc3ccccc3NC2c2cccs2)CCC1 (stereo not given)
AC50 [5]: 3.83 µM (active)
AC50 [6]: 2.27 µM (active)
AC50 [7]: 1.3 µM (active)
AC50 [8]: 2.44 µM (active)

Cc1ccc2[nH]c(SCc3ccc([N+](=O)[O-])cc3)nc2c1
CC50 [9]: 13.6 µM (active)
AC50 (Cytochrome P450 1A2): 1.12 µM (active)
EC50 [10]: 4.41 µM (active)
AC50 (Cytochrome P450 2C19): 0.794 µM (active)
AC50 (Cytochrome P450 2D6): 5.01 µM (active)
AC50 (Cytochrome P450 2C9 [11]): 3.55 µM (active)

Cn1ccs/c1=N\C(=O)c1ccccc1F
IC50 (cells): > 50 µM (active)

Cc1cc(NC(=O)CSc2c(C)[nH]c3ccccc23)no1
EC50 [10]: 5.22 µM (active)

Oc1ccccc1C=NN=Cc1c(O)ccc2ccccc12
EC50 [3]: > 99 µM (inactive)
EC50 [4]: > 99 µM (inactive)
EC50 [12]: 5.17 µM (active)

CCCCCCOc1ccc(CN2CCN(CC)CC2)cc1
EC50 [13]: 0.752 µM (active)
EC50 [2]: > 50 µM (active)
EC50 [14]: > 30 µM (not active)

COc1ccc(C2(O)CCN(Cc3nnnn3Cc3ccc(F)cc3)CC2)cc1
CC50 [15]: > 40 µM (active)

Cc1ccc(C)c(Cn2c(CO)nc3ccccc32)c1
EC50 [10]: 2.68 µM (active)

CC[C@@]12C(=O)N(c3cccc(F)c3)C(=O)N1[C@H](c1ccc(Br)cc1)[C@@H]1C(=O)N(C(C)(C)C)C(=O)[C@@H]12
AC50 [5]: < 0.26 µM (active)
AC50 [6]: < 0.26 µM (active)
AC50 [7]: < 0.26 µM (active)
AC50 [8]: < 0.26 µM (active)

COC(=O)c1ccccc1NC(=O)Cn1cnc2c(cnn2-c2ccccc2)c1=O
EC50 [3]: > 99 µM (inactive)
EC50 [4]: > 99 µM (inactive)

COc1cccc(C(c2nnnn2CCc2ccccc2)N2CCN(c3ccccc3)CC2)c1OC (stereo not given)
EC50 [10]: 0.986 µM (active)

Cc1cccc(NC(=O)c2onc3c2CCCC3)c1C
AC50 (Cytochrome P450 2C19): 20 µM (inconclusive)
AC50 (Cytochrome P450 2C9 [16]): inconclusive

CCCOc1ccc(N2CC(C(=O)Nc3ccccn3)CC2=O)cc1 (stereo not given)
IC50 (cells): 19.8 µM (active)

Cc1cc(Cl)c(S(=O)(=O)Nc2ccc3c(c2)OCO3)cc1OCC(=O)NC1CCCCC1
EC50 [10]: 2.06 µM (active)

COc1cccc(C(=O)OCn2nnc3ccccc3c2=O)c1OC
IC50 (cells): 16.2 µM (active)

COC(=O)c1cc2sccc2n1Cc1nc(-c2cccc(Cl)c2)oc1C
IC50 [17]: > 100 µM (inactive)
IC50 [18]: > 100 µM (not active)

Cc1ccn2c(=O)nc(SCC(=O)NCc3ccccc3)nc2c1
IC50 [1]: 9.61 µM (active)

O=C(C[n+]1cc(-c2ccccc2)n2c1CCC2)c1cccs1
EC50 [2]: > 50 µM (active)

NC(=NOC(=O)N1c2ccccc2Sc2ccccc21)c1ccc(Br)cc1
IC50 [1]: 6.46 µM (active)

CC1(C(=O)N(c2ccccc2)C(C(=O)NC2CCCC2)c2ccccn2)CC(=O)N=C2C=CC=CN21 (stereo not given)
IC50 [17]: > 100 µM (inactive)
IC50 [18]: > 100 µM (not active)

Cc1ccc2c(c1)NC(=O)C(CC(=O)O)O2 (stereo not given)
IC50 [17]: > 100 µM (inactive)
IC50 [18]: > 100 µM (not active)

Oc1ccc(C2NCc3ccccc3-n3cccc32)cc1Cl (stereo not given)
EC50 [2]: > 50 µM (active)

COc1ccc(NC(=O)C2CCN(C(=O)c3cccs3)CC2)c(OC)c1
AC50 (Cytochrome P450 2C9 [16]): inconclusive

O=C(COc1cccc2ccccc12)NNC(=O)CSCCO
IC50 [17]: > 100 µM (inactive)
IC50 [18]: > 100 µM (not active)

O=S(=O)(NC1CCN(Cc2ccccc2)CC1)c1cccc2cccnc12
AC50 (Cytochrome P450 2D6): 1.58 µM (inconclusive)
AC50 (Cytochrome P450 2C9 [16]): inconclusive

Cc1cc(O)nc(NN=C(CC(C)C)CC(C)C)n1
IC50 [17]: > 100 µM (inactive)
IC50 [18]: > 100 µM (not active)

O=C1CCCN1c1ccc(CNS(=O)(=O)c2ccc(F)cc2)cc1
EC50 [2]: > 50 µM (active)

O=C(Nc1ccc(Cl)cc1C(F)(F)F)c1ccc(Cl)cc1
AC50 (Cytochrome P450 1A2): 4.47 µM (inconclusive)
AC50 (Cytochrome P450 2C19): 2.24 µM (inconclusive)
AC50 (Cytochrome P450 2C9 [16]): inconclusive

CC(C)c1cccc(-c2ccc3c(c2)S(=O)(=O)c2cccc(C(=O)NCc4ccco4)c2C3=O)c1
IC50 [1]: 8.02 µM (active)

COc1ccc(S(=O)(=O)NCCC(=O)NC(C)c2ccccc2)cc1 (stereo not given)
AC50 (Cytochrome P450 3A4 [19]): 22.4 µM (inconclusive)
AC50 (Cytochrome P450 2C19): 17.8 µM (inconclusive)
AC50 (Cytochrome P450 2D6): 14.1 µM (inconclusive)
AC50 (Cytochrome P450 2C9 [16]): inconclusive

CCOc1ccccc1OCCOc1ccc(F)cc1
AC50 (Cytochrome P450 2D6): 22.4 µM (inconclusive)
AC50 (Cytochrome P450 2C9 [16]): inconclusive

Cc1cc(O)c(C(C)(C)C)cc1Sc1cc(C(C)(C)C)c(O)cc1C
AC50 (Cytochrome P450 3A4 [20]): 3.98 µM (inconclusive)

O=C(c1ccc(N2CCN(C(=O)c3ccccc3Br)CC2)cc1)c1cccc(F)c1
IC50 [21]: > 100 µM (not active)

COc1ccc(C(=O)OCn2nnc3ccccc3c2=O)cc1
IC50 (cells): 16.8 µM (active)

Cc1cc(C(=O)OCC(=O)NCCC(C)C)c2ccccc2n1
AC50 (Cytochrome P450 3A4 [19]): 15.8 µM (inconclusive)
AC50 (Cytochrome P450 2C9 [16]): inconclusive
